For one data set, the system named is Boophilus microplus. Briefly: Boophilus microplus test (BOOPMI injection). In kind it is in vivo. To be noted: 20 μg/animal, injection into abdomen, after 7 days, laying of fertile eggs. As for the experimental part:
Boophilus microplus Test (BOOPMI Injection) Solvent: Dimethyl Sulphoxide To prepare an appropriate active ingredient formulation, 10 mg of active ingredient are mixed with 0.5 ml of solvent and the concentrate is diluted with solvent to the desired concentration. The active ingredient solution is injected into the abdomen (Boophilus microplus), and the animals are transferred into dishes and stored in a climate-controlled room. The efficacy is assessed by laying of fertile eggs. After 7 days, the efficacy in % is determined. 100% means that none of the ticks has laid any fertile eggs.

The subject of the next data set is Spodoptera frugiperda. The data set is described as follows: Spodoptera frugiperda test (SPODFR spray treatment). It counts as in vivo. To be noted: 500 g/ha, maize leaf discs, after 7 days. As for the experimental part:
Spodoptera frugiperda Test (SPODFR Spray Treatment) Solvent: 78.0 parts by weight of acetone • • 1.5 parts by weight of dimethylformamide Emulsifier: 0.5 part by weight of alkylaryl polyglycol ether To prepare an appropriate active ingredient preparation, 1 part by weight of active ingredient is mixed with the stated amounts of solvent and emulsifier, and the concentrate is diluted with emulsifier-containing water to the desired concentration. Discs of maize leaves (Zea mays) are sprayed with an active ingredient preparation of the desired concentration and, after drying, populated with caterpillars of the armyworm (Spodoptera frugiperda). After 7 days, the efficacy in % is determined. 100% means that all caterpillars have been killed; 0% means that none of the caterpillars have been killed.

Another data set deals with Phaedon cochleariae. The data set is described as follows: Phaedon test (PHAECO spray treatment). It counts as in vivo. To be noted: 500 g/ha, Chinese cabbage discs, after 7 days. As for the experimental part: Phaedon Test ([…] Spray Treatment) Solvent: 78.0 parts by weight of acetone • • 1.5 parts by weight of dimethylformamide Emulsifier: 0.5 part by weight of alkylaryl polyglycol ether To prepare an appropriate active ingredient preparation, 1 part by weight of active ingredient is mixed with the stated amounts of solvent and emulsifier, and the concentrate is diluted with emulsifier-containing water to the desired concentration. Discs of Chinese cabbage (Brassica pekinensis) are sprayed with an active ingredient preparation of the desired concentration and, after drying, populated with larvae of the mustard beetle (Phaedon cochleariae). After 7 days, the efficacy in % is determined. 100% means that all beetle larvae have been killed; 0% means that none of the beetle larvae have been killed.

Data set [1] is described as follows: logP by reversed-phase HPLC (EEC Directive 79/831 Annex V.A8). It counts as physicochemical. To be noted: * LC-MS, acidic range, pH 2.7, 0.1% aqueous formic acid / acetonitrile. From the text:
[table] The calibration is effected with unbranched alkan-2-ones (having 3 to 16 carbon atoms) with known log P values (log P values determined on the basis of the retention times by linear interpolation between two successive alkanones).

The test system of a further data set is Ctenocephalides felis. Briefly: Ctenocephalides felis test (CTECFE). It counts as in vivo. To be noted: 100 ppm in citrated cow's blood, after 2 days. As for the experimental part: Ctenocephalides felis Test ([…]) Solvent: 1 Part by Weight of Dimethyl Sulphoxide For the purpose of preparing an appropriate active ingredient formulation, 10 mg of active ingredient are mixed with 0.5 ml of dimethyl sulphoxide. A portion of the concentrate is diluted with citrated cow's blood and the desired concentration is established. About 20 unfed adult fleas (Ctenocephalides felis) are introduced into a chamber closed at the top and bottom with gauze. A metal cylinder, the bottom of which is closed with Parafilm, is placed onto the chamber. The cylinder contains the blood/active ingredient preparation, which can be imbibed by the fleas through the Parafilm membrane. After 2 days, the kill in % is determined. 100% means that all fleas have been killed; 0% means that none of the fleas have been killed.

Another data set concerns Tetranychus urticae. Briefly: Tetranychus test, OP-resistant (TETRUR spray treatment). It counts as in vivo. To be noted: 500 g/ha, bean leaf discs, after 6 days. As for the experimental part:
Tetranychus Test, OP-resistant (TETRUR Spray Treatment)
Solvent: 78.0 parts by weight of acetone • • 1.5 parts by weight of dimethylformamide
Emulsifier: 0.5 part by weight of alkylaryl polyglycol ether
To prepare an appropriate active ingredient preparation, 1 part by weight of active ingredient is mixed with the stated amounts of solvent and emulsifier, and the concentrate is diluted with emulsifier-containing water to the desired concentration. Discs of bean leaves (Phaseolus vulgaris) infested by all stages of the red spider mite (Tetranychus urticae) are sprayed with an active ingredient preparation of the desired concentration. After 6 days, the efficacy in % is determined. 100% means that all spider mites have been killed; 0% means that none of the spider mites have been killed.

The test system of another data set is Musca domestica. Briefly: Musca domestica test. To be noted: 100 ppm, after 2 days. It counts as in vivo. As for the experimental part: Musca domestica Test Solvent: Dimethyl Sulphoxide To prepare an appropriate active ingredient formulation, 10 mg of active ingredient are mixed with 0.5 ml of dimethyl sulphoxide and the concentrate is diluted with water to the desired concentration. Vessels containing a sponge treated with the active ingredient preparation of the desired concentration are populated with adult Musca domestica. After 2 days, the kill in % is determined. 100% means that all of the flies have been killed; 0% means that none of the flies have been killed.

The next data set relates to Lucilia cuprina larvae. The data set is described as follows: Lucilia cuprina test (LUCICU). To be noted: 100 ppm, treated horse meat, after 2 days. It counts as in vivo. As for the experimental part: Lucilia cuprina Test (LUCICU) Solvent: Dimethyl Sulphoxide To prepare an appropriate active ingredient formulation, 10 mg of active ingredient are mixed with 0.5 ml of dimethyl sulphoxide and the concentrate is diluted with water to the desired concentration. Vessels containing horse meat treated with the active ingredient preparation of the desired concentration are populated with about 20 Lucilia cuprina larvae. After 2 days, the kill in % is determined. 100% means that all of the larvae have been killed; 0% means that none of the larvae have been killed.

Another data set relates to Myzus persicae. Briefly: Myzus test (MYZUPE spray treatment). To be noted: 500 g/ha, Chinese cabbage discs, after 6 days. In kind it is in vivo. As for the experimental part: Myzus test (MYZUPE Spray Treatment) Solvent: 78 parts by weight of acetone • • 1.5 parts by weight of dimethylformamide Emulsifier: 0.5 part by weight of alkylaryl polyglycol ether To prepare an appropriate active ingredient preparation, 1 part by weight of active ingredient is mixed with the stated amounts of solvent and emulsifier, and the concentrate is diluted with emulsifier-containing water to the desired concentration. Discs of Chinese cabbage (Brassica pekinensis) infested by all stages of the green peach aphid (Myzus persicae) are sprayed with an active ingredient preparation of the desired concentration. After 6 days, the efficacy in % is determined. 100% means that all of the aphids have been destroyed; 0% means that none of the aphids have been destroyed.

Turning to `COc1nccnc1-n1nc(C(F)(F)F)c(-c2cc(Br)c3c(c2)OCCCO3)c1N` [Ex. 131], the efficacy in the data set on Boophilus microplus, in the data set on Spodoptera frugiperda, in the data set on Phaedon cochleariae and with Tetranychus urticae was 100% each time. Further, in data set [1], the “log P” value was 3.32*. For the same molecule, the “efficacy (kill)” value in the data set with Ctenocephalides felis, with Musca domestica and in the data set with Lucilia cuprina larvae was 100% throughout.

In the case of `C=C(C)c1nn(-c2nccnc2OC)c(N)c1-c1cc(Cl)cc(Cl)c1` [Ex. 167], the efficacy in the data set on Phaedon cochleariae, with Tetranychus urticae and in the data set on Myzus persicae was 100% throughout. For the same molecule, the “log P” value in data set [1] is reported as 3.79*.

Regarding `COc1cc(-c2c(C(F)(F)F)nn(-c3nccnc3OC)c2N)cc(C(F)(F)F)c1OC` [Ex. 89], the efficacy in the data set with Boophilus microplus, with Spodoptera frugiperda and in the data set on Phaedon cochleariae was 100% in each case. In addition, in [1], the “log P” value is reported as 3.56*. In addition, the figures for the “efficacy (kill)” value in the data set on Ctenocephalides felis, in the data set with Musca domestica and in the data set with Lucilia cuprina larvae were 100%, 80% and 100%, respectively.

On to `CCOc1nccnc1-n1nc(C(F)(F)F)c(-c2cc(Cl)cc(C(F)(F)F)c2)c1N` [Ex. 12], for which the efficacy turned out to be 100% in the data set with Boophilus microplus, 100% in the data set on Phaedon cochleariae and 90% in the data set on Tetranychus urticae. In addition, the “log P” value in [1] was 4.47*. The figures for the “efficacy (kill)” value in the data set on Ctenocephalides felis, in the data set with Musca domestica and with Lucilia cuprina larvae were 90%, 100% and 100%, respectively.

As to `COc1nccnc1-n1nc(C(F)(F)C(F)(F)C(F)(F)F)c(-c2cc(Cl)cc(C(F)(F)F)c2)c1N` [Ex. 46], the efficacy was found to be 100% in the data set with Boophilus microplus; 100% in the data set on Spodoptera frugiperda; 100% in the data set on Phaedon cochleariae; 80% in the data set with Tetranychus urticae; 80% in the data set with Myzus persicae. Further, the “log P” value in data set [1] is given as 4.91*. The “efficacy (kill)” value amounted to 80% in the data set on Ctenocephalides felis and 100% in the data set with Lucilia cuprina larvae.

On to `COc1nccnc1-n1nc(C(C)(C)F)c(-c2cc(Cl)cc(Cl)c2)c1N` [Ex. 168], for which the efficacy in the data set with Spodoptera frugiperda, with Phaedon cochleariae, in the data set with Tetranychus urticae and with Myzus persicae was 100% in each case. Besides, in data set [1], the “log P” value is 3.77*.

On to `C=CCN(CC=C)c1c(-c2cc(Cl)cc(C(F)(F)F)c2)c(C(F)(F)F)nn1-c1nccnc1OC` [Ex. 103], for which, in [1], the “log P” value was 4.08*. The efficacy with Myzus persicae is 80%.

Take `COc1nccnc1-n1nc(C(F)(F)C(F)F)c(-c2cc(Cl)cc(C(F)(F)F)c2)c1N` [Ex. 59]: the efficacy is recorded as 83% with Spodoptera frugiperda, 100% in the data set with Phaedon cochleariae, 100% in the data set with Tetranychus urticae and 100% with Myzus persicae. For the same molecule, in data set [1], the “log P” value was 4.05*.

As to `C=Cc1nn(-c2nccnc2OC)c(N)c1-c1cc(Cl)cc(C(F)(F)F)c1` [Ex. 9], the efficacy in the data set on Boophilus microplus, with Spodoptera frugiperda, with Phaedon cochleariae, in the data set with Tetranychus urticae and in the data set on Myzus persicae was 100% in each case. Further, the “log P” value in data set [1] is given as 3.63*. For the same molecule, the “efficacy (kill)” value in the data set with Lucilia cuprina larvae was determined as 100%.

For `COc1ccc(CNc2c(-c3cc(Cl)cc(C(F)(F)F)c3)c(C(F)(F)F)nn2-c2nccnc2OC)cc1` [Ex. 41], the values for the efficacy with Phaedon cochleariae and in the data set on Myzus persicae were 100% and 90%, respectively. Further, the “log P” value in data set [1] is 5.13*. The “efficacy (kill)” value with Ctenocephalides felis worked out at 80%; in the data set with Lucilia cuprina larvae, 100%.

In the case of `COc1nccnc1-n1nc(C(F)(F)C(F)(F)F)c(-c2cc(F)cc(C(F)(F)F)c2)c1N` [Ex. 21], the efficacy in the data set on Boophilus microplus, in the data set with Spodoptera frugiperda, with Phaedon cochleariae, with Tetranychus urticae and in the data set with Myzus persicae was 100% throughout. The “log P” value in data set [1] is 4.23*. In addition, the “efficacy (kill)” value in the data set with Musca domestica and with Lucilia cuprina larvae was 100% in each case.

In the case of `COc1nccnc1-n1nc(C(F)(F)F)c(-c2cc(Cl)cc(C(F)(F)F)c2)c1N` [Ex. 10], in the data set on Boophilus microplus, the efficacy came out at 100%. For the same molecule, the “log P” value in data set [1] is 4.07*. In addition, the entries for the “efficacy (kill)” value in the data set on Ctenocephalides felis, in the data set with Musca domestica and in the data set on Lucilia cuprina larvae were 90%, 100% and 100%, respectively.

On to `COc1nccnc1-n1nc(C(F)(F)F)c(-c2cc(Cl)cc(C(F)(F)F)c2)c1NCc1ccccc1` [Ex. 33], for which the efficacy with Phaedon cochleariae is 100%; with Tetranychus urticae, 90%; in the data set on Myzus persicae, 80%. For the same molecule, the “log P” value in [1] is 5.28*.

Consider `COc1nccnc1-n1nc(C(F)(F)F)c(-c2cc(Cl)cc(Cl)c2)c1N` [Ex. 6], for which the efficacy amounted to 100% with Boophilus microplus, 83% with Spodoptera frugiperda and 100% in the data set on Phaedon cochleariae. The “log P” value in data set [1] is listed as 3.95*. Further, the “efficacy (kill)” value in the data set with Ctenocephalides felis turned out to be 90%; with Musca domestica it was 80%; in the data set with Lucilia cuprina larvae it was 100%.

Values taken from US20120190687A1, “Pyrazinylpyrazoles” (Bayer CropScience Ag, priority 2009, published 2012).
